In patent US6713504B2, “Antifungal molecule 2-(3,4-dimethyl-2,5-dihydro-1H-pyrrol-2-yl)-1-methylethyl pentanoate” (Council of Scientific & Industrial Research, priority 2002, dated 2004):

System: A. fumigatus infection
Experiment: In vivo efficacy (survival) in mice model of aspergillosis
Design: species or system Balb/C mice
Settings: 7 doses
Method: The mice model of aspergillosis described by Dixon et al (1989), was used to study the effects of compound on in vivo infection of A. fumigatus.
The animals were housed in the micro-barrier cages on sterile bedding and fed ad libitum water and food. The mice were divided into 6 groups and each group contained 8-10 animals. The mice were infected experimentally with A. fumigatus. Three days prior to infection with conidia, mice were injected subcutaneously with 3 doses (250.0 mg/kg/day) of cortisone acetate in 400.0 μl of PBS. On the infection day, each mouse received 2×10^7 conidia by nasal instillation of a single droplet of conidial suspension.
A. fumigatus (190/96) isolate was grown on Sabouraud dextrose agar plates at 37° C. for 4 days. The conidia were collected from the culture plates using PBS (pH 7.2) containing 0.05% Tween 80 (Sigma Chemicals) and the suspension was filtered through sterile glass wool. The conidia were pelleted by centrifugation at 2000 rpm and re-suspended in PBS, pH 7.2. The number of conidia was counted and adjusted to 1×10^8 conidia/ml. The viability of the conidia was determined by plating the dilutions of suspensions on Sabouraud dextrose agar.
The purified compound (metelatropinyl ester) isolated from the D. metel was administered orally in the concentration ranging from 0.0, 25.0 50.0 100.0 200.0 and 400.0 mg/kg body weight to the mice infected experimentally with A. fumigatus.
The dosing of the animals (cortisone treated and challenged) with compound in 6 different groups was initiated within 30 min after challenge with A. fumigatus conidia.
Group I: The mice were treated orally with 7 doses of 25.0 mg/kg/day of the compound.
Group II: The animals infected with A. fumigatus conidia were given 50.0 mg/kg/day of the compound for 7 days orally.
Group III: The animals in this group were given 7 oral doses of 100.0 mg/kg/day of the compound.
Group IV: In this group of animals, 7 oral doses of the compound (200.0 mg/kg/day) were given.
Group V: The animals of this group were treated with 7 doses of 400.0 mg/kg/day orally over a period of 7 days.
Group VI: The animals of this group acted as control and were treated orally with 7 doses of 400 μl PBS containing solvent.
The animals were housed in properly labeled cages and kept under close watch for weight loss and the mortality. The survival rate over a period of 10 days was calculated and the fungal burden in survivors determined (Clemons and Stevens, 1994).
The Balb/C mice of 6-8 weak of age of either sex, weighing 15-20 g, were housed in micro-barrier cages on sterile bedding and fed ad libitum water and food. The animals were divided into 6 groups and each group contained 8-10 mice.

CCCCC(=O)OC(C)CC1NCC(C)=C1C (centres unmarked) [PC-1, 2-(3,4-dimethyl-2,5-dihydro-1H-pyrrol-2-yl)-1-methylethyl pentanoate]
survived up to 10th day (25.0 mg/kg body weight oral, 1 out of 10): 10% | survived up to 10th day (50.0 mg/kg body weight oral, 1 out of 8): 12.5% | survived up to 10th day (100.0 mg/kg body weight oral, 3 out of 9): 33.3% | survived up to 10th day (200.0 mg/kg body weight oral, 4 out of 9): 44.4% | survived up to 10th day (400.0 mg/kg body weight oral, 8 out of 10): 80%
